Experimental data published in patent US9113629B2, “4-amino-6-(4-substituted-phenyl)-picolinates and 6-amino-2-(4-substituted-phenyl)-pyrimidine-4-carboxylates and their use as herbicides” (DOW AGROSCIENCES LLC, priority 2013, dated 2015).

What was measured:
Assay in all cases: Post-emergent Test III, herbicidal activity in wheat and barley
Format in all cases: in vivo
[1] = system: SASKR: Russian thistle (Salsola iberica); settings: Table 8, 21 d; for pest or weed control at 35 g/ha / pest or weed control at 70 g/ha / pest or weed control at 140 g/ha: Salsola tragus, post-emergence, 504 h, post-emergent, read-out: Visual Growth Reduction (%) 21 Days After Application SASKR; for pest or weed control at 35 g/ha: 35 g ai/ha; for pest or weed control at 70 g/ha: 70 g ai/ha; for GR50 SASKR: dose for 50 percent growth reduction; for GR50 SASKR / GR80 SASKR: probit analysis; for GR80 SASKR: dose for 80 percent growth reduction; for pest or weed control at 140 g/ha: 140 g ai/ha
Procedure, shortened: (§1)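 Plants at the second to third true-leaf stage, grown in a greenhouse at about 18/17 °C with a 14 h photoperiod, were sprayed post-emergence at 187 L/ha with the high rate and ½× to 1/16× serial dilutions in an acetone/DMSO/crop-oil/surfactant carrier. Injury was rated visually at 21 d on a 0–100% scale, and GR20–GR90 were derived by probit analysis.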

[2] = system: VIOSS: wild pansy (Viola tricolor), field violet (Viola arvensis); settings: Table 8, 21 d; for GR50 VIOSS: dose for 50 percent growth reduction; for GR50 VIOSS / GR80 VIOSS: probit analysis; for GR80 VIOSS: dose for 80 percent growth reduction; for pest or weed control at 35 g/ha / pest or weed control at 70 g/ha / pest or weed control at 140 g/ha: Viola tricolor, post-emergence, 504 h, post-emergent, read-out: Visual Growth Reduction (%) 21 Days After Application VIOSS; for pest or weed control at 35 g/ha: 35 g ai/ha; for pest or weed control at 70 g/ha: 70 g ai/ha; for pest or weed control at 140 g/ha: 140 g ai/ha
Procedure, shortened: as §1

[3] = system: CIRAR: Canada thistle (Cirsium arvense); settings: Table 8, 21 d; for pest or weed control at 35 g/ha / pest or weed control at 70 g/ha / pest or weed control at 140 g/ha: Cirsium arvense, post-emergence, 504 h, post-emergent, read-out: Visual Growth Reduction (%) 21 Days After Application CIRAR; for pest or weed control at 35 g/ha: 35 g ai/ha; for pest or weed control at 70 g/ha: 70 g ai/ha; for GR50 CIRAR: dose for 50 percent growth reduction; for GR50 CIRAR / GR80 CIRAR: probit analysis; for GR80 CIRAR: dose for 80 percent growth reduction; for pest or weed control at 140 g/ha: 140 g ai/ha
Procedure, shortened: as §1

[4] = system: GALAP: cleavers (Galium aparine); settings: Table 8, 21 d; for pest or weed control at 35 g/ha / pest or weed control at 70 g/ha / pest or weed control at 140 g/ha: Galium aparine, post-emergence, 504 h, post-emergent, read-out: Visual Growth Reduction (%) 21 Days After Application GALAP; for pest or weed control at 35 g/ha: 35 g ai/ha; for pest or weed control at 70 g/ha: 70 g ai/ha; for GR50 GALAP: dose for 50 percent growth reduction; for GR50 GALAP / GR80 GALAP: probit analysis; for GR80 GALAP: dose for 80 percent growth reduction; for pest or weed control at 140 g/ha: 140 g ai/ha
Procedure, shortened: as §1

Row | SMILES | pest or weed control at 35 g/ha [1] | pest or weed control at 70 g/ha [1] | GR50 SASKR [1] | GR80 SASKR [1] | GR50 VIOSS [2] | GR80 VIOSS [2] | pest or weed control at 35 g/ha [2] | pest or weed control at 70 g/ha [2] | pest or weed control at 35 g/ha [3] | pest or weed control at 70 g/ha [3] | GR50 CIRAR [3] | GR80 CIRAR [3] | pest or weed control at 35 g/ha [4] | pest or weed control at 70 g/ha [4] | GR50 GALAP [4] | GR80 GALAP [4] | pest or weed control at 140 g/ha [1] | pest or weed control at 140 g/ha [2] | pest or weed control at 140 g/ha [3] | pest or weed control at 140 g/ha [4]
1 | COC(=O)c1nc(-c2ccc(I)c(F)c2)nc(N)c1OC [Compound 27, Methyl 6-amino-2-(3-fluoro-4-iodophenyl)-5-methoxypyrimidine-4-carboxylate] | 60 to 74% | 60 to 74% | 22 g ai/ha | 116 g ai/ha | 8 g ai/ha | 27 g ai/ha | 75 to 84% | 95 to 100% | 75 to 84% | 75 to 84% | 18 g ai/ha | 70 g ai/ha | 85 to 94% | 85 to 94% | 5 g ai/ha | 25 g ai/ha | – | – | – | –
2 | COc1c(N)nc(-c2ccc(I)c(F)c2)nc1C(=O)O [Compound 37, 6-Amino-2-(3-fluoro-4-iodophenyl)-5-methoxypyrimidine-4-carboxylic acid] | 45 to 59% | 60 to 74% | 33 g ai/ha | 104 g ai/ha | 12 g ai/ha | 35 g ai/ha | 75 to 84% | 85 to 94% | 45 to 59% | 75 to 84% | 23 g ai/ha | 103 g ai/ha | 85 to 94% | 95 to 100% | 14 g ai/ha | 31 g ai/ha | – | – | – | –
3 | Nc1c(Cl)c(C(=O)O)nc(-c2ccc(Br)c(F)c2)c1Cl [Compound 43, 4-Amino-6-(4-bromo-3-fluorophenyl)-3,5-dichloropicolinic acid] | 75 to 84% | 75 to 84% | 3 g ai/ha | 61 g ai/ha | 37 g ai/ha | >140 g ai/ha | 45 to 59% | 60 to 74% | 85 to 94% | 85 to 94% | 0 g ai/ha | 13 g ai/ha | 95 to 100% | 95 to 100% | 2 g ai/ha | 6 g ai/ha | – | – | – | –
4 | COC(=O)c1nc(-c2ccc(I)c(F)c2)c(C)c(N)c1Cl [Compound 79, Methyl 4-amino-3-chloro-6-(3-fluoro-4-iodophenyl)-5-methylpicolinate] | 75 to 84% | 85 to 94% | 11 g ai/ha | 43 g ai/ha | >140 g ai/ha | >140 g ai/ha | 0 to 29% | 0 to 29% | 95 to 100% | 95 to 100% | 1 g ai/ha | 5 g ai/ha | 95 to 100% | 95 to 100% | 4 g ai/ha | 6 g ai/ha | – | – | – | –
5 | Nc1cc(-c2ccc(I)cc2F)nc(C(=O)O)c1Cl [Compound 124] | 60 to 74% | 85 to 94% | 12 g ai/ha | 53 g ai/ha | 24 g ai/ha | 49 g ai/ha | 60 to 74% | 95 to 100% | 60 to 74% | 75 to 84% | 24 g ai/ha | 91 g ai/ha | 85 to 94% | 95 to 100% | 6 g ai/ha | 21 g ai/ha | – | – | – | –
6 | COC(=O)c1nc(-c2ccc(C#N)c(F)c2)c(F)c(N)c1Cl [Compound 135, methyl 4-amino-3-chloro-6-(4-cyano-3-fluorophenyl)-5-fluoropicolinate] | 60 to 74% | 60 to 74% | 3 g ai/ha | >140 g ai/ha | 23 g ai/ha | >140 g ai/ha | 60 to 74% | 60 to 74% | 85 to 94% | 85 to 94% | 1 g ai/ha | 13 g ai/ha | 60 to 74% | 95 to 100% | 12 g ai/ha | 38 g ai/ha | 75 to 84% | 75 to 84% | 85 to 94% | 95 to 100%
7 | Nc1c(Cl)c(C(=O)O)nc(-c2ccc(I)c(F)c2)c1Cl [Compound 145, 4-Amino-3,5-dichloro-6-(3-fluoro-4-iodophenyl)picolinic acid] | 60 to 74% | 75 to 84% | – | 79 g ai/ha | >140 g ai/ha | >140 g ai/ha | 0 to 29% | 0 to 29% | 95 to 100% | 85 to 94% | 2 g ai/ha | 7 g ai/ha | 45 to 59% | 75 to 84% | 18 g ai/ha | 54 g ai/ha | 85 to 94% | 30 to 44% | 95 to 100% | 95 to 100%
8 | COC(=O)c1nc(-c2ccc(Br)c(F)c2)nc(N)c1OC [Compound 171, Methyl 6-amino-2-(4-bromo-3-fluorophenyl)-5-methoxypyrimidine-4-carboxylate] | 60 to 74% | 75 to 84% | 21 g ai/ha | 67 g ai/ha | 5 g ai/ha | 10 g ai/ha | 95 to 100% | 95 to 100% | 60 to 74% | 60 to 74% | 17 g ai/ha | 80 g ai/ha | 85 to 94% | 95 to 100% | – | 23 g ai/ha | – | – | – | –
